Test system: healthy participants
Assay: Critical flicker fusion task (CFF)
Assay type: in vivo, human
Details: for CFF Median Ascending score / CFF Median Descending score: mean (SD)
From the text: (§1) The critical flicker fusion task (CFF; [30]) was used to test perceptual vigilance using the frequency of a flickering LED (between 12 and 50 Hz). The outcome variable for CFF is frequency (Hz) for ascending and descending trials. In the ascending trials, the participants pressed a button indicating when the light flickered to a speed where they appear to be continuously on or fused. In the descending trials, the participants pressed a button when the frequency of apparently fused lights is decreased such that lights begin to appear to be flashing.
Cognitive data: In this exploratory analysis, each outcome variable of the cognitive data was examined in a mixed model analysis of variance with one between-subjects factor of VU319 dose (0, 60, 120, 240, 400, 600 mg) and a within-subjects factor of testing session (pre-dose vs. post-dost administration). Post-hoc analysis compared each of the VU319 dose cohorts against the placebo group. Because the participants were healthy adults with normal cognitive function, we considered effects between no reductions in function to small improvement (d = 0.0–0.20) to be a positive result. For the food effect study, only the participants who received VU319 were examined due to the disproportionately small placebo group (n = 2). A within-subjects ANOVA including food condition (fasted/fed) and testing session (pre-dose vs. post-dose administration) was performed on each outcome variable.
as §1, with “(Kupke & Lewis, 1989))” for “[30])”, “12-50” for “12 and 50”

[1] = Food effect study 120 mg, Fasting, Post-Drug
[2] = Food effect study 120 mg, Fasting, Pre-Drug
[3] = Food effect study 120 mg, Fed, Post-Drug
[4] = Food effect study 120 mg, Fed, Pre-Drug

Cn1cc2c(-c3cc(F)c(CN4Cc5ncccc5C4=O)c(F)c3)cccc2n1 [VU319]
CFF Median Ascending score [1]: 39.03 (5.2) Hz
CFF Median Descending score [1]: 38.59 (4.57) Hz
CFF Median Ascending score [2]: 34.62 (9.06) Hz
CFF Median Descending score [2]: 38.49 (5.19) Hz
CFF Median Ascending score [3]: 39.29 (4.38) Hz
CFF Median Descending score [3]: 39.36 (4.08) Hz
CFF Median Ascending score [4]: 39.09 (5.81) Hz
CFF Median Descending score [4]: 39.25 (3.25) Hz
CFF Median Ascending score (SAD study, 60 mg, Post-Drug): 37.67 (3.1) Hz
CFF Median Descending score (SAD study, 60 mg, Post-Drug): 38.32 (7.51) Hz
CFF Median Ascending score (SAD study, 60 mg, Pre-Drug): 36.32 (4.6) Hz
CFF Median Descending score (SAD study, 60 mg, Pre-Drug): 37 (5.35) Hz
CFF Median Ascending score (SAD study, 120 mg, Post-Drug): 36.53 (3.87) Hz
CFF Median Descending score (SAD study, 120 mg, Post-Drug): 38.68 (3.31) Hz
CFF Median Ascending score (SAD study, 120 mg, Pre-Drug): 37.33 (2.38) Hz
CFF Median Descending score (SAD study, 120 mg, Pre-Drug): 40.23 (4.95) Hz
CFF Median Ascending score (SAD study, 240 mg, Post-Drug): 38.12 (4.1) Hz
CFF Median Descending score (SAD study, 240 mg, Post-Drug): 37.25 (6.89) Hz
CFF Median Ascending score (SAD study, 240 mg, Pre-Drug): 32.72 (9.97) Hz
CFF Median Descending score (SAD study, 240 mg, Pre-Drug): 37.1 (6.52) Hz
CFF Median Ascending score (SAD study, 400 mg, Post-Drug): 39.98 (3.97) Hz
CFF Median Descending score (SAD study, 400 mg, Post-Drug): 40.05 (3.01) Hz
CFF Median Ascending score (SAD study, 400 mg, Pre-Drug): 37.92 (3.7) Hz
CFF Median Descending score (SAD study, 400 mg, Pre-Drug): 39.67 (2.1) Hz
CFF Median Ascending score (SAD study, 600 mg, Post-Drug): 36.58 (3.14) Hz
CFF Median Descending score (SAD study, 600 mg, Post-Drug): 39.73 (5.18) Hz
CFF Median Ascending score (SAD study, 600 mg, Pre-Drug): 35.45 (3.61) Hz
CFF Median Descending score (SAD study, 600 mg, Pre-Drug): 39.22 (5.92) Hz
CFF ascending trial, effect of dose (SAD study, both p > 0.3): no effect of dose, nor a dose by time interaction
CFF ascending condition, post- vs pre-dose, effect size d (food effect study, 120 mg, p = 0.07): 1.37
